This is an account of results in patent US20210228734A1, “CONJUGATES COMPRISING A TEMPERATURE-RESPONSIVE POLYMER AND A LIGAND CAPABLE OF BINDING ERGOSTEROL” (L V PRASAD EYE INSTITUTE, priority 2018, published 2021).

Series [1] deals with Fusarium keratoplasticum ATCC36031. As to the kind of experiment: Minimal inhibitory concentration (MIC), F. keratoplasticum ATCC36031. The series is classed as cell-based. The settings on record: F. keratoplasticum ATCC 36031. The procedure: (§1) C. albicans cells, laboratory strain SC5314 or ATCC90028, were cultured on solid BHI (Oxoid) medium at 37° C. for 24 hours and stored at 4° C. for up to one month. Prior to experiments, a colony of C. albicans was sub-cultured into liquid BHI medium overnight at 37° C. Overnight cultures of C. albicans were adjusted to an optical density at 600 nm of 0.1 and incubated with Amphotericin polymers, which were serially diluted 1:2 from 2500-2.44 μg/ml, for 16 hours in a 96 well plate. The concentration of polymer at which there was no visible growth was determined to be the MIC. C. albicans (Robin) ATCC200955, C. tropicalis ATCC200956, A. flavus ATCC16883 and F. keratoplasticum ATCC36031 were similarly cultured on solid Sabrauds (Oxoid) medium at 37° C. for 24 hours and stored at 4° C. for up to one month. Prior to experiments, colonies were sub-cultured into liquid Sabrauds medium overnight at 37° C. All liquid cultures were static apart from A. flavus which was incubated shaking at 100 rpm.

In series [2] the test system is C. albicans (Robin) ATCC200955. The series can be described thus: Minimal inhibitory concentration (MIC), C. albicans ATCC200955. The class given is cell-based. The settings on record: C. albicans ATCC200955 (Amp-B non-sensitive); Table 3b. The procedure: as §1
A further series concerns C. tropicalis ATCC200956. As to the kind of experiment: Minimal inhibitory concentration (MIC), C. tropicalis ATCC200956. The class given is cell-based. The settings on record: C. tropicalis ATCC200956 (Amp-B non-sensitive); Table 3b. The procedure: as §1, with “Overnight cultures of C. albicans were adjusted to an optical density at 600 nm of 0.1 and incubated with Amphotericin polymers, which were serially diluted 1:2 from 2500-2.44 μg/ml, for 16 hours in a 96 well plate.” left out

The conditions of series [3]: literature range; cited from earlier work.
The subject of series [4] is rabbit limbal epithelial cells. The series can be described thus: Rabbit limbal epithelial cell viability (Alamar Blue). The settings on record: p<0.01. (In general: Alamar Blue is a resazurin reagent that responds to reducing activity.)
Experimental: Tissue was immersed in 2.5 mg ml^−1 (w/v) dispase II solution in DMEM for 1 hour at 37° C. The limbal rims were subsequently scraped gently using forceps to remove the epithelial cells. The dispase-cell suspension was centrifuged at 200 g for 5 minutes and re-suspended in culture medium containing DMEM: Ham's F12 (1:1) supplemented with 10% foetal calf serum, 100 U ml^−1 penicillin and 100 U ml^−1 streptomycin, 2.5 μg ml^−1 Amp−B, 5 μg ml^−1 insulin and 10 ng ml^−1 epidermal growth factor. Cells were cultured with irradiated 3T3-mouse fibroblasts at a cell density of 2.4×10^4 cells cm^−2 in culture medium. Cells were not used beyond passage 3. For experiments, cells were seeded into 24 well-plates at 5×10^4 cells per well and cultured for 24 hours.
Prior to determining the viability of rabbit limbal epithelial cells, cells were washed 3× with phosphate-buffered saline (PBS, 0.01M, pH 7.4) to remove residual antimicrobials. […] Epithelial cell/cornea viability was determined using Alamar Blue reagent (5 μg ml^−1) dissolved in PBS. Cells/corneas were incubated with Alamar Blue for 30 minutes and the fluorescence of the solution determined at 570 nm excitation and 585 nm emission (Infinite 200, Tecan). Data for each polymer is presented as percentage viability relative to an untreated control. […]
Another series has as its system C. albicans SC5314. The series can be described thus: Minimal inhibitory concentration (MIC), C. albicans SC5314. The class given is cell-based. The procedure:
(§2) C. albicans cells, laboratory strain SC5314 or ATCC90028, were cultured on solid BHI (Oxoid) medium at 37° C. for 24 hours and stored at 4° C. for up to one month. Prior to experiments, a colony of C. albicans was sub-cultured into liquid BHI medium overnight at 37° C.
as §1

For series [5], the system named is Aspergillus flavus ATCC16883. The series can be described thus: Minimal inhibitory concentration (MIC), A. flavus ATCC16883. The series is classed as cell-based. The note with it: A. flavus ATCC 16883. Here is the method:
as §1

The test system of a further series is C. albicans ATCC90028. As to the kind of experiment: Minimal inhibitory concentration (MIC), C. albicans ATCC90028. The series is classed as cell-based. Here is the method:
as §2, §1

For series [6] the following is noted: physiological pH; stated as well known; cited from earlier work.
For the next series, the system named is human donor corneas. The settings on record: 2.5 ma ml^−1, Alamar Blue, p<0.01.
[7] abbreviates: from weight based MIC and molar density.

Bounds are passed on as bounds.

Experimental for human donor corneas: Epithelial cell/cornea viability was determined using Alamar Blue reagent (5 μg ml^−1) dissolved in PBS. Cells/corneas were incubated with Alamar Blue for 30 minutes and the fluorescence of the solution determined at 570 nm excitation and 585 nm emission (Infinite 200, Tecan). Data for each polymer is presented as percentage viability relative to an untreated control. Each assay was performed in triplicate and data represents the mean±SD from three independent experiments.
The examination of the cytotoxicity was further examined on ex vivo human corneas.

For the molecule `C[C@@H]1[C@H](O)[C@@H](C)/C=C/C=C/C=C/C=C/C=C/C=C/C=C/[C@H](O[C@@H]2O[C@H](C)[C@@H](O)[C@H](N)[C@@H]2O)C[C@@H]2O[C@](O)(C[C@@H](O)C[C@@H](O)[C@H](O)CC[C@@H](O)C[C@@H](O)CC(=O)O[C@H]1C)C[C@H](O)[C@H]2C(=O)O` [Amp-B, amphotericin B], the “Weight based MIC” value in series [1] (Table 3b) was 0.2 µg·mL; in [2] it was >2500 µg·mL; in the series on C. tropicalis ATCC200956, >2500 µg·mL; with C. albicans SC5314 (Table 3b), 0.4 µg·mL; in series [5] (Table 3b), 1.5 µg·mL; with C. albicans ATCC90028 (Table 3b) it was 0.5 µg·mL. The “Molar MIC” value in series [1] (setting [7]) stood at 250 µM; in the series with C. albicans SC5314 (from weight based MIC and molar density of Amp-B groups) it was 500 µM; in series [5] (setting [7]), 1800 µM; in the series on C. albicans ATCC90028 (setting [7]), 4800 µM. Moreover, in series [3], the “MIC for Amp-B” value was 0.625 to 4 µg/mL. Also, the “Metabolic activity of cells compared with the cell only control” value in series [4] (100 μg ml^−1, 24 hours) was determined as 42.8±13.9%. In addition, in series [4] (1 mg ml^−1, 24 hours), the “Decrease in epithelial cell viability relative to a cell only control” value is “approximately 91.7%”. Further, the “Solubility in water and saline solution” value in series [6] was “insoluble”. In the series on human donor corneas, the “Loss of corneal viability” value is on record as “approximately 95%”.
